Measurements reported in US5718923A, “Melt granulated sucralfate preparations and a process for their production” (Chugai Seiyaku Kabushiki Kaisha, priority 1994, dated 1998).

Legend:
Format in all cases: physicochemical
[1] = dispersed particle size (size of particles as dispersed in water), laser diffraction particle size analyzer
Procedure: Each of the samples thus prepared was measured for the dispersed particle size (i.e., the size of particles as dispersed in water) by means of a laser diffraction particle size analyzer (Nikkiso Co., Ltd.); in addition, the samples were analyzed for average size (at 50% cumulative frequency) and the proportion of particles not larger than 50 μm. […]

[2] = specific surface area measurement, nitrogen gas as adsorbate; details: Table 2
Procedure: Each of the samples thus prepared was measured for the dispersed particle size by means of a laser diffraction particle size analyzer; in addition, a specific surface area measurement was conducted before and after the granulation by means of a specific surface area measuring instrument (Shimadzu Corp.) using nitrogen gas as adsorbate.

[3] = particle size of the comminuted powder (hammer mill); details: comminuted with a hammer mill at about 3,000-3,600 rpm
Procedure: A dry powder sucralfate (as specified in Pharmacopoeia of Japan, JP) was comminuted with a hammer mill at about 3,000-3,600 rpm.

[4] = Table 2, sucralfate:polyethylene glycol mixing proportions
[5] = Table 2, sucralfate:polyethylene glycol mixing proportions, melt granulated at 300 rpm to 65° C.

Substance	Dispersed particle size, Percent 50 μm and less [1, 4] [%]	Dispersed particle size, Average [1, 5] [μm]	Specific surface area [2] [m^2 /g]	Dispersed particle size, Average ([1]; Table 1, average size at 50% cumulative frequency, dispersed in water) [μm]	Dispersed particle size, Percent 50 μm and less ([1]; Table 1, dispersed in water) [%]	particle size of comminuted powder, in words [3]
sucralfate [Sucralfate of JP]	86.2	18.6	1.6	–	–	–
sucralfate [Comminuted sucralfate powder]	100.0	4.4	5.1	4.4	100.0	entirely composed of particles not larger than 50 μm
